# Experimental data from ChEMBL document CHEMBL4138146, “A Schmidt rearrangement-mediated synthesis of novel tetrahydro-benzo[1,4]diazepin-5-ones as potential anticancer and antiprotozoal agents” (Eur J Med Chem, 2017).
# Tested on: MDA-MB-435
# Assay: Growth inhibition of human MDA-MB-435 cells assessed as cell growth at 10 uM incubated for 48 hrs by sulforhodamine B assay relative to control
# Format: functional
# Conditions: MDA-MB-435, 48 h, read-out: Activity
row,SMILES,growth at 10 µM
1,Cc1cccc2cc(C3CNC(=O)c4ccccc4N3)c(=O)[nH]c12 (stereo unspecified),106%
2,O=C1NCC(c2cc3ccc(Cl)cc3[nH]c2=O)Nc2ccccc21 (stereo unspecified),104%

# Tested on: U-937
# Assay: Cytotoxicity against human U937 cells after 72 hrs by MTT assay
# Format: functional
# Conditions: U-937, 72 h, read-out: LC50 (the source's name)
row,SMILES,CC50
1,O=C1NCC(c2cc3ccc(Cl)cc3[nH]c2=O)Nc2ccccc21 (stereo unspecified),> 200 µg/mL

# Tested on: SK-MEL-5
# Assay: Growth inhibition of human SK-MEL-5 cells assessed as cell growth at 10 uM incubated for 48 hrs by sulforhodamine B assay relative to control
# Format: functional
# Conditions: SK-MEL-5, 48 h, read-out: Activity
row,SMILES,growth at 10 µM
1,Cc1cccc2cc(C3CNC(=O)c4ccccc4N3)c(=O)[nH]c12 (stereo unspecified),102%
2,O=C1NCC(c2cc3ccc(Cl)cc3[nH]c2=O)Nc2ccccc21 (stereo unspecified),102%

# Tested on: SNB-75
# Assay: Growth inhibition of human SNB75 cells assessed as cell growth at 10 uM incubated for 48 hrs by sulforhodamine B assay relative to control
# Format: functional
# Conditions: SNB-75, 48 h, read-out: Activity
row,SMILES,growth at 10 µM
1,Cc1cccc2cc(C3CNC(=O)c4ccccc4N3)c(=O)[nH]c12 (stereo unspecified),86.5%
2,O=C1NCC(c2cc3ccc(Cl)cc3[nH]c2=O)Nc2ccccc21 (stereo unspecified),84.3%

# Tested on: UACC-257
# Assay: Growth inhibition of human UACC257 cells assessed as cell growth at 10 uM incubated for 48 hrs by sulforhodamine B assay relative to control
# Format: functional
# Conditions: UACC-257, 48 h, read-out: Activity
row,SMILES,growth at 10 µM
1,Cc1cccc2cc(C3CNC(=O)c4ccccc4N3)c(=O)[nH]c12 (stereo unspecified),100%
2,O=C1NCC(c2cc3ccc(Cl)cc3[nH]c2=O)Nc2ccccc21 (stereo unspecified),78.4%

# Tested on: MDA-MB-231
# Assay: Growth inhibition of human MDA-MB-231 cells assessed as cell growth at 10 uM incubated for 48 hrs by sulforhodamine B assay relative to control
# Format: functional
# Conditions: MDA-MB-231, 48 h, read-out: Activity
row,SMILES,growth at 10 µM
1,Cc1cccc2cc(C3CNC(=O)c4ccccc4N3)c(=O)[nH]c12 (stereo unspecified),110%
2,O=C1NCC(c2cc3ccc(Cl)cc3[nH]c2=O)Nc2ccccc21 (stereo unspecified),118%

# Tested on: DU-145
# Assay: Growth inhibition of human DU145 cells assessed as cell growth at 10 uM incubated for 48 hrs by sulforhodamine B assay relative to control
# Format: functional
# Conditions: DU-145, 48 h, read-out: Activity
row,SMILES,growth at 10 µM
1,Cc1cccc2cc(C3CNC(=O)c4ccccc4N3)c(=O)[nH]c12 (stereo unspecified),109%
2,O=C1NCC(c2cc3ccc(Cl)cc3[nH]c2=O)Nc2ccccc21 (stereo unspecified),110%

# Tested on: SR
# Assay: Growth inhibition of human SR cells assessed as cell growth at 10 uM incubated for 48 hrs by sulforhodamine B assay relative to control
# Format: functional
# Conditions: read-out: Activity
row,SMILES,growth at 10 µM
1,Cc1cccc2cc(C3CNC(=O)c4ccccc4N3)c(=O)[nH]c12 (stereo unspecified),110%
2,O=C1NCC(c2cc3ccc(Cl)cc3[nH]c2=O)Nc2ccccc21 (stereo unspecified),115%

# Tested on: EKVX
# Assay: Growth inhibition of human EKVX cells assessed as cell growth at 10 uM incubated for 48 hrs by sulforhodamine B assay relative to control
# Format: functional
# Conditions: read-out: Activity
row,SMILES,growth at 10 µM
1,Cc1cccc2cc(C3CNC(=O)c4ccccc4N3)c(=O)[nH]c12 (stereo unspecified),98.4%
2,O=C1NCC(c2cc3ccc(Cl)cc3[nH]c2=O)Nc2ccccc21 (stereo unspecified),95.2%

# Tested on: K562
# Assay: Growth inhibition of human K562 cells assessed as cell growth at 10 uM incubated for 48 hrs by sulforhodamine B assay relative to control
# Format: functional
# Conditions: K562, 48 h, read-out: Activity
row,SMILES,growth at 10 µM
1,Cc1cccc2cc(C3CNC(=O)c4ccccc4N3)c(=O)[nH]c12 (stereo unspecified),118%
2,O=C1NCC(c2cc3ccc(Cl)cc3[nH]c2=O)Nc2ccccc21 (stereo unspecified),124%

# Tested on: HL-60(TB)
# Assay: Growth inhibition of human HL-60(TB) cells assessed as cell growth at 10 uM incubated for 48 hrs by sulforhodamine B assay relative to control
# Format: functional
# Conditions: HL-60, 48 h, read-out: Activity
row,SMILES,growth at 10 µM
1,Cc1cccc2cc(C3CNC(=O)c4ccccc4N3)c(=O)[nH]c12 (stereo unspecified),116%
2,O=C1NCC(c2cc3ccc(Cl)cc3[nH]c2=O)Nc2ccccc21 (stereo unspecified),111%

# Tested on: Hs-578T
# Assay: Growth inhibition of human Hs 578T cells assessed as cell growth at 10 uM incubated for 48 hrs by sulforhodamine B assay relative to control
# Format: functional
# Conditions: read-out: Activity
row,SMILES,growth at 10 µM
1,Cc1cccc2cc(C3CNC(=O)c4ccccc4N3)c(=O)[nH]c12 (stereo unspecified),105%
2,O=C1NCC(c2cc3ccc(Cl)cc3[nH]c2=O)Nc2ccccc21 (stereo unspecified),113%

# Tested on: LOX IMVI
# Assay: Growth inhibition of human LOXIMVI cells assessed as cell growth at 10 uM incubated for 48 hrs by sulforhodamine B assay relative to control
# Format: functional
# Conditions: read-out: Activity
row,SMILES,growth at 10 µM
1,Cc1cccc2cc(C3CNC(=O)c4ccccc4N3)c(=O)[nH]c12 (stereo unspecified),94.3%
2,O=C1NCC(c2cc3ccc(Cl)cc3[nH]c2=O)Nc2ccccc21 (stereo unspecified),96.3%

# Tested on: HCT-15
# Assay: Growth inhibition of human HCT15 cells assessed as cell growth at 10 uM incubated for 48 hrs by sulforhodamine B assay relative to control
# Format: functional
# Conditions: HCT-15, 48 h, read-out: Activity
row,SMILES,growth at 10 µM
1,Cc1cccc2cc(C3CNC(=O)c4ccccc4N3)c(=O)[nH]c12 (stereo unspecified),102%
2,O=C1NCC(c2cc3ccc(Cl)cc3[nH]c2=O)Nc2ccccc21 (stereo unspecified),103%

# Tested on: Plasmodium falciparum
# Assay: Antimalarial activity against chloroquine-sensitive Plasmodium falciparum 3D7 incubated for 48 hrs by malstat reagent based LDH release assay
# Format: functional, organism-based
# Conditions: 3D7, 48 h
row,SMILES,EC50
1,O=C1NCC(c2cc3ccc(Cl)cc3[nH]c2=O)Nc2ccccc21 (stereo unspecified),59.3 µg/mL

# Tested on: IGROV-1
# Assay: Growth inhibition of human IGROV1 cells assessed as cell growth at 10 uM incubated for 48 hrs by sulforhodamine B assay relative to control
# Format: functional
# Conditions: IGROV-1, 48 h, read-out: Activity
row,SMILES,growth at 10 µM
1,Cc1cccc2cc(C3CNC(=O)c4ccccc4N3)c(=O)[nH]c12 (stereo unspecified),106%
2,O=C1NCC(c2cc3ccc(Cl)cc3[nH]c2=O)Nc2ccccc21 (stereo unspecified),96.5%

# Tested on: M14
# Assay: Growth inhibition of human M14 cells assessed as cell growth at 10 uM incubated for 48 hrs by sulforhodamine B assay relative to control
# Format: functional
# Conditions: M14, 48 h, read-out: Activity
row,SMILES,growth at 10 µM
1,Cc1cccc2cc(C3CNC(=O)c4ccccc4N3)c(=O)[nH]c12 (stereo unspecified),98.4%
2,O=C1NCC(c2cc3ccc(Cl)cc3[nH]c2=O)Nc2ccccc21 (stereo unspecified),96.8%

# Tested on: NCI-H460
# Assay: Growth inhibition of human NCI-H460 cells assessed as cell growth at 10 uM incubated for 48 hrs by sulforhodamine B assay relative to control
# Format: functional
# Conditions: NCI-H460, 48 h, read-out: Activity
row,SMILES,growth at 10 µM
1,Cc1cccc2cc(C3CNC(=O)c4ccccc4N3)c(=O)[nH]c12 (stereo unspecified),109%
2,O=C1NCC(c2cc3ccc(Cl)cc3[nH]c2=O)Nc2ccccc21 (stereo unspecified),104%

# Tested on: SK-MEL-2
# Assay: Growth inhibition of human SK-MEL-2 cells assessed as cell growth at 10 uM incubated for 48 hrs by sulforhodamine B assay relative to control
# Format: functional
# Conditions: SK-MEL-2, 48 h, read-out: Activity
row,SMILES,growth at 10 µM
1,Cc1cccc2cc(C3CNC(=O)c4ccccc4N3)c(=O)[nH]c12 (stereo unspecified),96.9%
2,O=C1NCC(c2cc3ccc(Cl)cc3[nH]c2=O)Nc2ccccc21 (stereo unspecified),103%

# Tested on: Leishmania panamensis
# Assay: Antileishmanial activity against EpiR/GFP fused Leishmania panamensis MHOM/CO/87/UA140 intracellular amastigotes infected in human […] cells after 72 hrs by flow cytometric method
# Format: functional, organism-based
# Conditions: MHOM/CO/87/UA140, 72 h
row,SMILES,EC50
1,O=C1NCC(c2cc3ccc(Cl)cc3[nH]c2=O)Nc2ccccc21 (stereo unspecified),77.9 µg/mL

# Tested on: RPMI-8226
# Assay: Growth inhibition of human RPMI8226 cells assessed as cell growth at 10 uM incubated for 48 hrs by sulforhodamine B assay relative to control
# Format: functional
# Conditions: RPMI-8226, 48 h, read-out: Activity
row,SMILES,growth at 10 µM
1,Cc1cccc2cc(C3CNC(=O)c4ccccc4N3)c(=O)[nH]c12 (stereo unspecified),114%
2,O=C1NCC(c2cc3ccc(Cl)cc3[nH]c2=O)Nc2ccccc21 (stereo unspecified),119%

# Tested on: Trypanosoma cruzi
# Assay: Antitrypanosomal activity against Trypanosoma cruzi Tulahuen amastigote forms infected in human U937 cells after 72 hrs by beta-galactosidase reporter gene assay
# Format: functional, organism-based
# Conditions: U-937, 72 h
row,SMILES,EC50
1,O=C1NCC(c2cc3ccc(Cl)cc3[nH]c2=O)Nc2ccccc21 (stereo unspecified),86 µg/mL

# Tested on: 786-0
# Assay: Growth inhibition of human 786-0 cells assessed as cell growth at 10 uM incubated for 48 hrs by sulforhodamine B assay relative to control
# Format: functional
# Conditions: 786-0, 48 h, read-out: Activity
row,SMILES,growth at 10 µM
1,Cc1cccc2cc(C3CNC(=O)c4ccccc4N3)c(=O)[nH]c12 (stereo unspecified),111%
2,O=C1NCC(c2cc3ccc(Cl)cc3[nH]c2=O)Nc2ccccc21 (stereo unspecified),99.7%

# Tested on: SF-268
# Assay: Growth inhibition of human SF268 cells assessed as cell growth at 10 uM incubated for 48 hrs by sulforhodamine B assay relative to control
# Format: functional
# Conditions: SF-268, 48 h, read-out: Activity
row,SMILES,growth at 10 µM
1,Cc1cccc2cc(C3CNC(=O)c4ccccc4N3)c(=O)[nH]c12 (stereo unspecified),99.6%
2,O=C1NCC(c2cc3ccc(Cl)cc3[nH]c2=O)Nc2ccccc21 (stereo unspecified),106%

# Tested on: CAKI-1
# Assay: Growth inhibition of human Caki1 cells assessed as cell growth at 10 uM incubated for 48 hrs by sulforhodamine B assay relative to control
# Format: functional
# Conditions: CAKI-1, 48 h, read-out: Activity
row,SMILES,growth at 10 µM
1,Cc1cccc2cc(C3CNC(=O)c4ccccc4N3)c(=O)[nH]c12 (stereo unspecified),100%
2,O=C1NCC(c2cc3ccc(Cl)cc3[nH]c2=O)Nc2ccccc21 (stereo unspecified),101%

# Tested on: BT-549
# Assay: Growth inhibition of human BT549 cells assessed as cell growth at 10 uM incubated for 48 hrs by sulforhodamine B assay relative to control
# Format: functional
# Conditions: BT-549, 48 h, read-out: Activity
row,SMILES,growth at 10 µM
1,Cc1cccc2cc(C3CNC(=O)c4ccccc4N3)c(=O)[nH]c12 (stereo unspecified),112%
2,O=C1NCC(c2cc3ccc(Cl)cc3[nH]c2=O)Nc2ccccc21 (stereo unspecified),99.9%

# Tested on: HCC 2998
# Assay: Growth inhibition of human HCC2998 cells assessed as cell growth at 10 uM incubated for 48 hrs by sulforhodamine B assay relative to control
# Format: functional
# Conditions: HCC 2998, 48 h, read-out: Activity
row,SMILES,growth at 10 µM
1,Cc1cccc2cc(C3CNC(=O)c4ccccc4N3)c(=O)[nH]c12 (stereo unspecified),103%
2,O=C1NCC(c2cc3ccc(Cl)cc3[nH]c2=O)Nc2ccccc21 (stereo unspecified),105%

# Tested on: PC-3
# Assay: Growth inhibition of human PC3 cells assessed as cell growth at 10 uM incubated for 48 hrs by sulforhodamine B assay relative to control
# Format: functional
# Conditions: PC-3, 48 h, read-out: Activity
row,SMILES,growth at 10 µM
1,Cc1cccc2cc(C3CNC(=O)c4ccccc4N3)c(=O)[nH]c12 (stereo unspecified),89.1%
2,O=C1NCC(c2cc3ccc(Cl)cc3[nH]c2=O)Nc2ccccc21 (stereo unspecified),87.1%

# Tested on: SF-295
# Assay: Growth inhibition of human SF295 cells assessed as cell growth at 10 uM incubated for 48 hrs by sulforhodamine B assay relative to control
# Format: functional
# Conditions: SF-295, 48 h, read-out: Activity
row,SMILES,growth at 10 µM
1,Cc1cccc2cc(C3CNC(=O)c4ccccc4N3)c(=O)[nH]c12 (stereo unspecified),98.8%
2,O=C1NCC(c2cc3ccc(Cl)cc3[nH]c2=O)Nc2ccccc21 (stereo unspecified),107%

# Tested on: MCF7
# Assay: Growth inhibition of human MCF7 cells assessed as cell growth at 10 uM incubated for 48 hrs by sulforhodamine B assay relative to control
# Format: functional
# Conditions: MCF7, 48 h, read-out: Activity
row,SMILES,growth at 10 µM
1,Cc1cccc2cc(C3CNC(=O)c4ccccc4N3)c(=O)[nH]c12 (stereo unspecified),98.8%
2,O=C1NCC(c2cc3ccc(Cl)cc3[nH]c2=O)Nc2ccccc21 (stereo unspecified),97.4%
